Assay results reported in PubChem BioAssay (NCI).
Where “and” joins values, the source holds several entries; their conditions need not be identical. Equal values may be shown once.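 Compound exposure: 48 hours, 5 concentrations, 96-well plates. GI50: concentration for 50% inhibition of growth. TGI: total growth inhibition.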

Experiments:
Test in all cases: inhibition of tumour cell growth, NCI panel, 48 h
[1] = tested on: MALME-3M melanoma
[2] = tested on: A498 renal
[3] = tested on: NCI/ADR-RES ovarian
[4] = tested on: RPMI-8226 leukemia
[5] = tested on: MOLT-4 leukemia
[6] = tested on: HL-60(TB) leukemia
[7] = tested on: OVCAR-4 ovarian
[8] = tested on: SK-MEL-28 melanoma
[9] = tested on: HS 578T breast
[10] = tested on: IGROV1 ovarian
[11] = tested on: SF-268 CNS
[12] = tested on: U251 CNS
[13] = tested on: LOX IMVI melanoma
[14] = tested on: HCT-116 colon
[15] = tested on: SNB-75 CNS
[16] = tested on: MCF7 breast
[17] = tested on: SNB-19 CNS
[18] = tested on: SR leukemia
[19] = tested on: PC-3 prostate
[20] = tested on: NCI-H226 lung
[21] = tested on: KM12 colon
[22] = tested on: HCC-2998 colon
[23] = tested on: T-47D breast
[24] = tested on: SW-620 colon
[25] = tested on: BT-549 breast
[26] = tested on: SF-295 CNS
[27] = tested on: EKVX NSCLC
[28] = tested on: NCI-H460 lung
[29] = tested on: SF-539 CNS
[30] = tested on: 786-0 renal
[31] = tested on: SK-MEL-2 melanoma
[32] = tested on: CAKI-1 renal
[33] = tested on: NCI-H23 lung
[34] = tested on: HCT-15 colon
[35] = tested on: SK-OV-3 ovarian
[36] = tested on: HOP-62 NSCLC
[37] = tested on: UACC-62 melanoma
[38] = tested on: ACHN renal
[39] = tested on: A549 NSCLC
[40] = tested on: RXF 393 renal
[41] = tested on: SK-MEL-5 melanoma
[42] = tested on: DU-145 prostate
[43] = tested on: HOP-92 NSCLC
[44] = tested on: COLO 205 colon
[45] = tested on: HT29 colon
[46] = tested on: OVCAR-5 ovarian
[47] = tested on: UACC-257 melanoma
[48] = tested on: CCRF-CEM leukemia
[49] = tested on: MDA-MB-435
[50] = tested on: M14 melanoma
[51] = tested on: NCI-H522 lung
[52] = tested on: K-562 leukemia
[53] = tested on: OVCAR-8 ovarian
[54] = tested on: UO-31 renal
[55] = tested on: SN12C renal
[56] = tested on: TK-10 renal
[57] = tested on: MDA-MB-231 breast
[58] = tested on: OVCAR-3 ovarian

CNC(=O)CN1CCC(Oc2cc3c(Nc4cccc(Cl)c4F)ncnc3cc2OC)CC1
GI50 [1]: 16.1 µM and > 10 µM
TGI [1]: > 58 µM
GI50 [2]: 1.1 µM and 1.33 µM
TGI [2]: 11.5 µM and > 10 µM
GI50 [3]: 11.4 µM and > 6.36 µM
TGI [3]: 66.4 µM and > 10 µM
GI50 [4]: 32.2 µM and > 10 µM
TGI [4]: > 100 µM
GI50 [5]: 16 µM and > 6.28 µM
TGI [5]: > 74.5 µM
GI50 [6]: 26.9 µM and > 4.95 µM
TGI [6]: > 65.4 µM
GI50 [7]: 20.1 µM and > 7.05 µM
TGI [7]: 98.5 µM and > 10 µM
GI50 [8]: 19.2 µM and > 7.55 µM
TGI [8]: 47.3 µM and > 10 µM
GI50 [9]: 3.35 µM and 2.96 µM
TGI [9]: 21.2 µM and > 10 µM
GI50 [10]: 0.303 µM and 0.084 µM
TGI [10]: 5.37 µM and 4.3 µM
GI50 [11]: 8.25 µM and 4.25 µM
TGI [11]: > 45.2 µM
GI50 [12]: 17 µM and > 6.47 µM
TGI [12]: 45.9 µM and > 10 µM
GI50 [13]: 8.12 µM and > 5.06 µM
TGI [13]: 20.9 µM and > 10 µM
GI50 [14]: 14.8 µM and > 5.44 µM
TGI [14]: 28.5 µM and > 10 µM
GI50 [15]: 2.09 µM and 1.84 µM
TGI [15]: 10.8 µM and > 10 µM
GI50 [16]: 13.8 µM and > 5 µM
TGI [16]: > 74.5 µM
GI50 [17]: 31.5 µM and > 8.29 µM
TGI [17]: > 100 µM
GI50 [18]: 21.1 µM and 2.19 µM
TGI [18]: > 70.1 µM and 8.97 µM
GI50 [19]: 17.5 µM and > 8.3 µM
TGI [19]: > 69.1 µM
GI50 [20]: 13.9 µM and > 6.23 µM
TGI [20]: 42.1 µM and > 10 µM
GI50 [21]: 17.3 µM and > 5.89 µM
TGI [21]: 32.4 µM and > 10 µM
GI50 [22]: 15.9 µM and > 7.7 µM
TGI [22]: 34.6 µM and > 10 µM
GI50 [23]: 1.24 µM and 0.53 µM
TGI [23]: 18.1 µM and > 7.9 µM
GI50 [24]: 15.6 µM and > 6.56 µM
TGI [24]: 32.9 µM and > 10 µM
GI50 [25]: 16.2 µM and > 10 µM
TGI [25]: 38.9 µM and > 10 µM
GI50 [26]: 12.5 µM and > 5.62 µM
TGI [26]: 29.3 µM and > 10 µM
GI50 [27]: < 0.0147 µM and 0.0154 µM
GI50 [28]: 28.1 µM and > 6.73 µM
TGI [28]: > 100 µM
GI50 [29]: 13.5 µM and > 5.94 µM
TGI [29]: 33.4 µM and > 10 µM
GI50 [30]: 5.28 µM and 5.31 µM
TGI [30]: 27.8 µM and > 10 µM
GI50 [31]: 16.7 µM and > 7.55 µM
TGI [31]: 34.1 µM and > 10 µM
GI50 [32]: 0.216 µM and 1.11 µM
TGI [32]: 10.4 µM and > 10 µM
GI50 [33]: 18.2 µM and > 7.11 µM
TGI [33]: > 58.5 µM
GI50 [34]: 11.2 µM and > 5.17 µM
TGI [34]: 67.6 µM and > 10 µM
GI50 [35]: 0.167 µM and 0.153 µM
TGI [35]: 5.73 µM and 1.82 µM
GI50 [36]: 7.91 µM and 3.95 µM
TGI [36]: 70.4 µM and > 10 µM
GI50 [37]: 16.3 µM and > 10 µM
TGI [37]: 32.6 µM and > 10 µM
GI50 [38]: < 0.0224 µM and 0.0561 µM
TGI [38]: 25.6 µM and > 10 µM
GI50 [39]: 5.66 µM and > 4.69 µM
TGI [39]: 22.9 µM and > 10 µM
GI50 [40]: 7.35 µM and 2.37 µM
TGI [40]: 27.3 µM and > 6.92 µM
GI50 [41]: 13.4 µM and 4.49 µM
TGI [41]: 26.5 µM and > 10 µM
GI50 [42]: 3.64 µM and 2.19 µM
TGI [42]: > 56 µM
GI50 [43]: 1.9 µM and 1.29 µM
TGI [43]: 16.4 µM and > 9.33 µM
GI50 [44]: 13.9 µM and > 4.66 µM
TGI [44]: 29 µM and > 8.92 µM
GI50 [45]: 11.6 µM and > 7.06 µM
TGI [45]: 32.6 µM and > 10 µM
GI50 [46]: 1.9 µM and 1.56 µM
TGI [46]: 22.4 µM and > 10 µM
GI50 [47]: 13.7 µM and > 10 µM
TGI [47]: 29.2 µM and > 10 µM
GI50 [48]: 24.6 µM and > 5.76 µM
TGI [48]: 81 µM and > 10 µM
GI50 [49]: 21.5 µM and > 8.41 µM
TGI [49]: > 62.4 µM
GI50 [50]: 18 µM and > 8.27 µM
TGI [50]: 34.1 µM and > 10 µM
GI50 [51]: 0.143 µM and 0.0614 µM
TGI [51]: 20.4 µM and > 10 µM
GI50 [52]: 16.8 µM and > 10 µM
TGI [52]: 45.6 µM and > 10 µM
GI50 [53]: 8.25 µM and > 5.04 µM
TGI [53]: > 77.3 µM
GI50 [54]: 0.177 µM and 0.427 µM
TGI [54]: 15.2 µM and > 10 µM
GI50 [55]: 2.96 µM and 3.42 µM
TGI [55]: > 100 µM
GI50 [56]: 0.0237 µM and 0.00744 µM
TGI [56]: 14.8 µM and > 10 µM
GI50 [57]: 5.9 µM and 4.18 µM
TGI [57]: 20.7 µM and > 10 µM
GI50 [58]: 3.83 µM and 2.34 µM
TGI [58]: 18.8 µM and > 10 µM
